Test results reported in ChEMBL document CHEMBL4270669 (J Med Chem, 2018).
The source made the active and inactive calls. No cut-off for these calls is given here.

Columns and labels:
[1] = Inhibition of TORC2 in human A2058 cells assessed as decrease in PKB/Akt phosphorylation at Ser473 after 1 hr by Western blot analysis; assay type: cell-based; settings: A2058, 1 h
[2] = Inhibition of TORC1 in human A2058 cells assessed as decrease in S6 phosphorylation at Ser235/236 after 1 hr by Western blot analysis; assay type: cell-based; settings: A2058, 1 h
[3] = biological target: Serine/threonine-protein kinase mTOR (Homo sapiens, UniProt P42345)
[4] = biological target: T1, Phosphatidylinositol 4,5-bisphosphate 3-kinase catalytic subunit alpha isoform (Homo sapiens, UniProt P42336)
T1 sequence (P42336 whole entry, the tested form may be a part, canonical isoform): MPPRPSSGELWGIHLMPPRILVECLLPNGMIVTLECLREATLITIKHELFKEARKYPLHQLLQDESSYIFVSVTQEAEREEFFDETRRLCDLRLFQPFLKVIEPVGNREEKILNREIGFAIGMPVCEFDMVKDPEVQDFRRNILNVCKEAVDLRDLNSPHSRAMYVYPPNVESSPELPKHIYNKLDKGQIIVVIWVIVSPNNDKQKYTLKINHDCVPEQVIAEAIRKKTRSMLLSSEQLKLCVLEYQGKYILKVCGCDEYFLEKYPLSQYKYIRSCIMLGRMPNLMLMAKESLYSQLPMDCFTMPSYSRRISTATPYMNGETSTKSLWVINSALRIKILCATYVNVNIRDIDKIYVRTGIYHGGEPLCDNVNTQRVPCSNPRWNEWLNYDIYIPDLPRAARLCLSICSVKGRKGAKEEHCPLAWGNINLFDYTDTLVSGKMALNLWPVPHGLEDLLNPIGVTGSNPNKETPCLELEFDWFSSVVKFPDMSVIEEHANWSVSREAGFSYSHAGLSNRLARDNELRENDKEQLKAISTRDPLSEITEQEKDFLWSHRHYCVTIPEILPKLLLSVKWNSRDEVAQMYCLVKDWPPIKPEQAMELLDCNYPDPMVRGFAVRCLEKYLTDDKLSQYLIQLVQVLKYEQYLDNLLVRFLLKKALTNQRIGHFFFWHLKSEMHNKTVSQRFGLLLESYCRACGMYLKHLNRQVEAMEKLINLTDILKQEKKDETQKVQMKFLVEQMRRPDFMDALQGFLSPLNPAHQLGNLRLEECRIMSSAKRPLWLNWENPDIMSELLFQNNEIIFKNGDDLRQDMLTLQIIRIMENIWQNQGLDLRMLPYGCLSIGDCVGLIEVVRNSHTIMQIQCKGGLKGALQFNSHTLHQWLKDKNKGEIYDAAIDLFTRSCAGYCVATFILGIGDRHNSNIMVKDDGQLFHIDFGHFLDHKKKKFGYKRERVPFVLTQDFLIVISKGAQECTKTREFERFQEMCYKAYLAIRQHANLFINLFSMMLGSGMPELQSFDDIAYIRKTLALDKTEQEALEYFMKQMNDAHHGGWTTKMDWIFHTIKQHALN

[5] = biological target: Phosphatidylinositol 3-kinase catalytic subunit type 3 (Homo sapiens, UniProt Q8NEB9); assay: Inhibition of human VPS34 (282 to 879 residues) expressed in mammalian expression system by KINOMEscan assay
Chain of Phosphatidylinositol 3-kinase catalytic subunit type 3 (Q8NEB9 whole entry, the tested form may be a part): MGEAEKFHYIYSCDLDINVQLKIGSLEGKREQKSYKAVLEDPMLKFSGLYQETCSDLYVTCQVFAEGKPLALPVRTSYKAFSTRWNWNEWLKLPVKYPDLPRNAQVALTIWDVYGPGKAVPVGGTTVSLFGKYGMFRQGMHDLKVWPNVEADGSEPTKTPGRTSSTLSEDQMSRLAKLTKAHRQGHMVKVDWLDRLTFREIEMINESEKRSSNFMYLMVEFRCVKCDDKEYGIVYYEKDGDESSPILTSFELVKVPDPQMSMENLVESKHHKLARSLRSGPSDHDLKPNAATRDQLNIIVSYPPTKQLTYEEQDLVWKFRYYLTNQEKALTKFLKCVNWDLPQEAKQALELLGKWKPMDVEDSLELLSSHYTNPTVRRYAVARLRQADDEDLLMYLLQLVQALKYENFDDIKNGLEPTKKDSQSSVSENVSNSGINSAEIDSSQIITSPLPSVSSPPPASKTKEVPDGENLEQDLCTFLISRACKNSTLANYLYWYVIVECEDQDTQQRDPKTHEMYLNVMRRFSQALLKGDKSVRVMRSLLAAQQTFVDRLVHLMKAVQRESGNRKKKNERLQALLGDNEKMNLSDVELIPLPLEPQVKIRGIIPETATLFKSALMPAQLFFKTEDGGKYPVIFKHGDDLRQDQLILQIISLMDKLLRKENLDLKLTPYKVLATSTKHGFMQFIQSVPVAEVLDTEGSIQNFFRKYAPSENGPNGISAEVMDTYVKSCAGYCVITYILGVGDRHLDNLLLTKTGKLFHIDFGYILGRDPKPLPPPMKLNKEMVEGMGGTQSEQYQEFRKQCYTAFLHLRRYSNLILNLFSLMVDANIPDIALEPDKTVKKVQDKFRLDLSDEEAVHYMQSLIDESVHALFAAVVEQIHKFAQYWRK

[6] = biological target: Phosphatidylinositol 4-kinase beta (Homo sapiens, UniProt Q9UBF8)
Chain of Phosphatidylinositol 4-kinase beta (Q9UBF8 whole entry, canonical isoform): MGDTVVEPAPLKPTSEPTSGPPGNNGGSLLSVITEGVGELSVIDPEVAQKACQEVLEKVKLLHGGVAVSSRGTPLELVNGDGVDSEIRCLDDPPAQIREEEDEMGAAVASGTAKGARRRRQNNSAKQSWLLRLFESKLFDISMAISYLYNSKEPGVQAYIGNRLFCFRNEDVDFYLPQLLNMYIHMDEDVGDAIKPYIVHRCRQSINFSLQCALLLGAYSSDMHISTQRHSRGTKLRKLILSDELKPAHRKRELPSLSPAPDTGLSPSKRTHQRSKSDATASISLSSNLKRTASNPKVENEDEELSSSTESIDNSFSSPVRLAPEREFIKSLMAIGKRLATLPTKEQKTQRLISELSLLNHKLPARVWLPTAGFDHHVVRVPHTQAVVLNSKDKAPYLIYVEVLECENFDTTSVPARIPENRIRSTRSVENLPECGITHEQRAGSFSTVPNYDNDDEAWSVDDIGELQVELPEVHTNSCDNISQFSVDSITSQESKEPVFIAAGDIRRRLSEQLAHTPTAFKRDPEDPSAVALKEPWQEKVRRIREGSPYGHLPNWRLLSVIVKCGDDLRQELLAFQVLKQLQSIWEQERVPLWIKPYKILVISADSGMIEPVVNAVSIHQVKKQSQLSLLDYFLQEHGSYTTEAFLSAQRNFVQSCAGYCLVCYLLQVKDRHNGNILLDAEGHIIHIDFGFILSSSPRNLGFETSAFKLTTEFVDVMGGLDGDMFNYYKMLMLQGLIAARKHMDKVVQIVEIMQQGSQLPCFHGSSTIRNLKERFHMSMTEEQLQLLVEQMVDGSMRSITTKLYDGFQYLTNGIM
Description: Inhibition of human PI4Kbeta (1 to 828 residues) expressed in mammalian expression system by KINOMEscan assay

[7] = biological target: T1, Phosphatidylinositol 4,5-bisphosphate 3-kinase catalytic subunit alpha isoform; remark: listed apart in the source
Description: Inhibition of human PI3Kalpha (108 to 1068 residues) expressed in mammalian expression system by KINOMEscan assay

[8] = biological target: Phosphatidylinositol 4,5-bisphosphate 3-kinase catalytic subunit beta isoform (Homo sapiens, UniProt P42338)
Chain of Phosphatidylinositol 4,5-bisphosphate 3-kinase catalytic subunit beta isoform (P42338 whole entry, canonical isoform): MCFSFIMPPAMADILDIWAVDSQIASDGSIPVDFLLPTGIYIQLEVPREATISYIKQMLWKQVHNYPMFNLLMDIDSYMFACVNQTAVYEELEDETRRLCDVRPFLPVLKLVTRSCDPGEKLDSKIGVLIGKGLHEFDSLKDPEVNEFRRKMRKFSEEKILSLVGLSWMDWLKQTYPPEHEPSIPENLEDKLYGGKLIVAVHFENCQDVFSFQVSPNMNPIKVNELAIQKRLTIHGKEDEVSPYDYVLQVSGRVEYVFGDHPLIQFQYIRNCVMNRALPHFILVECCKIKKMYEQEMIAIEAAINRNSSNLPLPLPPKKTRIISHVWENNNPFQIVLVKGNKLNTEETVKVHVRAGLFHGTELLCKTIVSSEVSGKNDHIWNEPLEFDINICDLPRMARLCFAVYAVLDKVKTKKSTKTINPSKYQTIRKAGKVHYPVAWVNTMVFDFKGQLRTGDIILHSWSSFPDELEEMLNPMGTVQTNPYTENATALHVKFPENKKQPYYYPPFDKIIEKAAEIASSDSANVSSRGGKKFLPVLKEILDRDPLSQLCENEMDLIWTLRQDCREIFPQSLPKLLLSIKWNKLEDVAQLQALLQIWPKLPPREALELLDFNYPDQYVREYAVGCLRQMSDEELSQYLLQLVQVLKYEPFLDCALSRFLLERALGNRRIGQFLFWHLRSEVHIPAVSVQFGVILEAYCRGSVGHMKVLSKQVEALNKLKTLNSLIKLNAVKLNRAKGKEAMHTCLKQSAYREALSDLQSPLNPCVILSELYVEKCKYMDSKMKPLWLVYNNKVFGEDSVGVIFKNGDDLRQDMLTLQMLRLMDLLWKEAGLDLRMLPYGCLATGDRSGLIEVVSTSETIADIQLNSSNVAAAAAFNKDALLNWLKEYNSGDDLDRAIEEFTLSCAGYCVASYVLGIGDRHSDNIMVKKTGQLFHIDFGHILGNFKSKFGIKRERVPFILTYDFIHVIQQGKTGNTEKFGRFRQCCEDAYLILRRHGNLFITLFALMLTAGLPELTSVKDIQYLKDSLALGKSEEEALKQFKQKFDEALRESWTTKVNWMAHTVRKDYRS
Description: Inhibition of human PI3Kbeta (118 to 1070 residues) expressed in mammalian expression system by KINOMEscan assay

[9] = biological target: T2, Phosphatidylinositol 4,5-bisphosphate 3-kinase catalytic subunit delta isoform (Homo sapiens, UniProt O00329)
T2 sequence (O00329 whole entry): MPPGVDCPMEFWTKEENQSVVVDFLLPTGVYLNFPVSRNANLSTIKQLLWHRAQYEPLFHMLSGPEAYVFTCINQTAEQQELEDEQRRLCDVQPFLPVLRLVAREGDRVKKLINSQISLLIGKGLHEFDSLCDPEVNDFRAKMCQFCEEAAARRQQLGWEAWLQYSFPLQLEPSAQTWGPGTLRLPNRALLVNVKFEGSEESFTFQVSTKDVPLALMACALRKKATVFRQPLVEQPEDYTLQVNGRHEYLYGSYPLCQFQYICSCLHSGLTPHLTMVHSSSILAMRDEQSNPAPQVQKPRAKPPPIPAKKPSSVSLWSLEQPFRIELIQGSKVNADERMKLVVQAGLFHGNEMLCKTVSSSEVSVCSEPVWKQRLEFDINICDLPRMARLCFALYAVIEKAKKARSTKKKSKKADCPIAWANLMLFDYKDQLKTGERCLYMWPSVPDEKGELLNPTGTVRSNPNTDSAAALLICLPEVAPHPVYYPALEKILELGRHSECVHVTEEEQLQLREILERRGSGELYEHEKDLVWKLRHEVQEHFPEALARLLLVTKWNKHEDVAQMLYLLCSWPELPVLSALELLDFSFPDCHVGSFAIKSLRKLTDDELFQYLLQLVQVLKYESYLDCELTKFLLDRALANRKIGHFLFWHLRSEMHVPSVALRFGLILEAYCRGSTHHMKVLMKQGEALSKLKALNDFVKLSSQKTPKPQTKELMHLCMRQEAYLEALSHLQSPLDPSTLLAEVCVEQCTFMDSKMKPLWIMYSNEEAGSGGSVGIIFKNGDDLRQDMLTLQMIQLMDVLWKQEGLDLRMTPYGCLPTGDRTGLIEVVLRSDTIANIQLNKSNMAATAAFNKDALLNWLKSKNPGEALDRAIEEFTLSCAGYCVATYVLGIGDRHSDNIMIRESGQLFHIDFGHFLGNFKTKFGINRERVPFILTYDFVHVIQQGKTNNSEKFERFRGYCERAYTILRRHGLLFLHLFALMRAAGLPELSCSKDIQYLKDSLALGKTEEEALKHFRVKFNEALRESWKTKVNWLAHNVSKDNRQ
Description: Inhibition of human PI3Kdelta (108 to 1044 residues) expressed in mammalian expression system by KINOMEscan assay

[10] = biological target: Phosphatidylinositol 4,5-bisphosphate 3-kinase catalytic subunit gamma isoform (Homo sapiens, UniProt P48736)
Chain of Phosphatidylinositol 4,5-bisphosphate 3-kinase catalytic subunit gamma isoform (P48736 whole entry, canonical isoform): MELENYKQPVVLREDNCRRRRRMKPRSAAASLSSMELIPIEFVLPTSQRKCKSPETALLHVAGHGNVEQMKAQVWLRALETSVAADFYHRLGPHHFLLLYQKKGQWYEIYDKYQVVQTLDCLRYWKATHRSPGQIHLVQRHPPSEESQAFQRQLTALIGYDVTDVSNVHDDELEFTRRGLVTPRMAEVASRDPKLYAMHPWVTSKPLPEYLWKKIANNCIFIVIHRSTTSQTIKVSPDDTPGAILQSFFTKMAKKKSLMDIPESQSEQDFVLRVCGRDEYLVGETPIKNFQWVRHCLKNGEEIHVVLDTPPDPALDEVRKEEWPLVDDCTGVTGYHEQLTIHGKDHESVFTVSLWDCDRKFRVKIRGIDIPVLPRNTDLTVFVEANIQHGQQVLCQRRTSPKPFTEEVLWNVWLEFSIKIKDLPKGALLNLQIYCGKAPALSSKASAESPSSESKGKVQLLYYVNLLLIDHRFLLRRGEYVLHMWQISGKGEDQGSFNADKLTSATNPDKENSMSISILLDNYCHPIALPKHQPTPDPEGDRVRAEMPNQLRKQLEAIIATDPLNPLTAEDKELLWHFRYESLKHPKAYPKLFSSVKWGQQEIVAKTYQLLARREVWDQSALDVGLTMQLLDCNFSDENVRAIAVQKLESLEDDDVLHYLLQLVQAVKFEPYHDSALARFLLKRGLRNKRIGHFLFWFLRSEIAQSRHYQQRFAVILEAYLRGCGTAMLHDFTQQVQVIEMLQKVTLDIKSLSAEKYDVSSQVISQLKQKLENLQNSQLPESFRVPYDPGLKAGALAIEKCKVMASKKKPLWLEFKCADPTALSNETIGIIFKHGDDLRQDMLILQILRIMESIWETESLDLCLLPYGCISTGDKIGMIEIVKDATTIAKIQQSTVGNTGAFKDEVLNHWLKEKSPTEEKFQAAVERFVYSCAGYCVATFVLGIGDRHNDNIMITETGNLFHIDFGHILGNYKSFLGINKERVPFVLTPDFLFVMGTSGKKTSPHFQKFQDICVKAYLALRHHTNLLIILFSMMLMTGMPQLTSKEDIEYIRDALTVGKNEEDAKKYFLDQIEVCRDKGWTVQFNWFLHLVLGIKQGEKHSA
Description: Inhibition of human PI3Kgamma (144 to 1102 residues) expressed in mammalian expression system by KINOMEscan assay

[11] = tested on: Mus musculus; assay: Toxicity in BALB/C nude mouse xenografted with human OVCAR3 cells assessed as body weight loss at 50 mg/kg, po administered daily for 28 days relative to control; assay type: organism-based; settings: in vivo, 672 h
[12] = tested on: OVCAR-3; assay: Antitumor activity against human OVCAR3 cells xenografted in BALB/C nude mouse assessed as tumor growth inhibition at 50 mg/kg, po administered daily for 28 days relative to control; assay type: functional; settings: OVCAR-3, po, 672 h, read-out: TGI
[13] = tested on: Mus musculus; assay: Antiepileptic activity in Tsc1flox/flox/GFAP-Cre conditional knocked out mouse model assessed as reduction in seizures at 50 mg/kg, po qd treated from days 21 to 53 postnatal by electroencephalography; assay type: functional, organism-based
[14] = tested on: Rattus norvegicus; assay: Increase in insulin levels in Sprague-Dawley rat plasma at 10 mg/kg, po administered as single dose; assay type: functional, organism-based
[15] = tested on: Mus musculus; assay: Increase in insulin levels in C57BL/6JRj mouse plasma at 50 mg/kg, po administered as single dose; assay type: functional, organism-based
[16] = tested on: Mus musculus; assay: Increase in glucose levels in C57BL/6JRj mouse plasma at 50 mg/kg, po administered as single dose; assay type: functional, organism-based
[17] = tested on: Rattus norvegicus; assay: Increase in glucose levels in Sprague-Dawley rat plasma at 10 mg/kg, po administered as single dose after 8 hrs; assay type: functional, organism-based

Row | SMILES | IC50 [1] [nM] | IC50 [2] [nM] | Ki [3] [nM] | Ki [4] [nM] | further results
1 | Nc1cc(C(F)F)c(-c2nc(N3CC4CCC(C3)O4)nc(N3CC4CCC(C3)O4)n2)cn1 | 630 | 301 | 13.9 | 1300 | –
2 | CC(C)n1nc(-c2ccc3oc(N)nc3c2)c2c(N)ncnc21 [SAPANISERTIB] | – | – | – | – | Kd [5]: 8200 nM
3 | Nc1cc(C(F)F)c(-c2nc(N3CCOCC34CCC4)nc(N3CCOCC34CCC4)n2)cn1 | 942 | 526 | 32.8 | 632 | –
4 | Nc1cc(C(F)F)c(-c2nc(N3C4CCC3COC4)cc(N3C4CCC3COC4)n2)cn1 | 650 | 395 | 60 | 2230 | –
5 | Nc1cc(C(F)F)c(-c2nc(N3C4COCC3C4)nc(N3C4COCC3C4)n2)cn1 | 17900 | 5770 | 551 | > 20000 | –
6 | Nc1cc(C(F)F)c(-c2cc(N3CCOCC3)nc(N3CCOCC3)n2)cn1 | 207 | 184 | 35 | 18 | –
7 | Nc1cc(C(F)F)c(-c2nc(N3CCOCC3)nc(N3CC4CCC(C3)O4)n2)cn1 | 144 | 112 | 3.4 | 23.7 | –
8 | Nc1cc(C(F)F)c(-c2nc(N3CCOCC3)nc(N3C4CCC3COC4)n2)cn1 | 156 | 113 | 11.2 | 25.8 | –
9 | Nc1cc(C(F)F)c(-c2nc(N3C4COCC3COC4)nc(N3C4COCC3COC4)n2)cn1 | 357 | 275 | 31 | 2380 | –
10 | C[C@@H]1COCCN1c1nc(-c2cnc(N)cc2C(F)F)nc(N2CCOC[C@H]2C)n1 | 364 | 310 | 12.6 | 633 | –
11 | Nc1cc(C(F)(F)F)c(-c2cc(N3C4CCC3COC4)nc(N3C4CCC3COC4)n2)cn1 | 520 | 318 | 30 | 2190 | –
12 | Nc1cc(CF)c(-c2nc(N3CCOCC3)nc(N3CCOCC3)n2)cn1 | 397 | 218 | 54.3 | 68.6 | –
13 | C[C@H]1COC[C@H](C)N1c1nc(-c2cnc(N)cc2C(F)F)nc(N2[C@@H](C)COC[C@@H]2C)n1 | 379 | 294 | 21.1 | 64 | –
14 | Nc1cc(C(F)F)c(-c2nc(N3CCOCC3)nc(N3CCOCC3)n2)cn1 | 102 | 118 | – | – | –
15 | Nc1cc(C(F)F)c(-c2nc(N3CCOCC3)cc(N3CCOCC3)n2)cn1 | 243 | 256 | 42 | 29 | –
16 | C[C@@H]1COCCN1c1nc(-c2cnc(N)cc2C(F)F)nc(N2CCOCC2)n1 | 147 | 138 | 9.6 | 20.8 | –
17 | C[C@@H]1COC[C@H](C)N1c1nc(-c2cnc(N)cc2C(F)F)nc(N2[C@H](C)COC[C@@H]2C)n1 | 252 | 160 | 3.5 | 141 | –

Row | SMILES | IC50 [1] [nM] | IC50 [2] [nM] | Ki [3] [nM] | Ki [4] [nM] | further results
18 | CO[C@H]1CC[C@H](N2C(=O)CNc3ncc(-c4ccc(C(C)(C)O)nc4)nc32)CC1 [ONATASERTIB] | – | – | – | – | Kd [6]: 39 nM; Kd [5]: 2500 nM
19 | COc1cc(N)ncc1-c1nc(N2CCOCC2)nc(N2CCOCC2)n1 | 1850 | 1920 | 483 | 693 | –
20 | Nc1cc(C(F)(F)F)c(-c2cc(N3CCOCC3)nc(N3CCOCC3)n2)cn1 [BUPARLISIB] | 416 | 553 | – | – | –
21 | CNC(=O)c1cccc(-c2ccc3c(N4CCOC[C@@H]4C)nc(N4CCOC[C@@H]4C)nc3n2)c1 [VISTUSERTIB] | – | – | – | – | Kd [7]: 33 nM; Kd [8]: 3300 nM; Kd [9]: 1500 nM; Kd [10]: 8400 nM; Kd [6]: > 30000 nM; Kd [5]: 23000 nM
22 | Nc1cc(C(F)F)c(-c2nc(N3C4CCCC3COC4)nc(N3C4CCCC3COC4)n2)cn1 | 1210 | 1300 | 60.2 | > 20000 | –
23 | Nc1cc(C(F)(F)F)c(-c2nc(N3C4CCC3COC4)cc(N3C4CCC3COC4)n2)cn1 | 3320 | 1940 | 435 | 5670 | –
24 | COC(OC)c1cc(N)ncc1-c1nc(N2CCOCC2)nc(N2CCOCC2)n1 | 1200 | 2110 | 474 | 129 | –
25 | Nc1cc(CO)c(-c2nc(N3CCOCC3)nc(N3CCOCC3)n2)cn1 | 341 | 528 | 74.5 | 81.3 | –
26 | C[C@@H]1CN(c2nc(-c3cnc(N)cc3C(F)F)nc(N3C[C@@H](C)O[C@@H](C)C3)n2)C[C@H](C)O1 | 20900 | 10400 | 650 | 15400 | –
27 | Nc1cc(C(F)F)c(-c2nc(N3C[C@H]4C[C@@H]3CO4)nc(N3C[C@H]4C[C@@H]3CO4)n2)cn1 | 17700 | 12600 | 308 | 4630 | –
28 | C[C@@H]1COC[C@@H](C)N1c1nc(-c2cnc(N)cc2C(F)F)nc(N2[C@H](C)COC[C@H]2C)n1 | 3570 | 1190 | 79.9 | > 20000 | –
29 | CC[C@@H]1COCCN1c1nc(-c2cnc(N)cc2C(F)F)nc(N2CCOC[C@H]2CC)n1 | 354 | 209 | 13.6 | 32.2 | –
30 | Nc1cc(C(F)F)c(-c2nc(N3C[C@@H]4C[C@H]3CO4)nc(N3C[C@@H]4C[C@H]3CO4)n2)cn1 | 4040 | 1560 | 18.5 | > 20000 | –
31 | CC1(C)CN(c2nc(-c3cnc(N)cc3C(F)F)nc(N3CCOC(C)(C)C3)n2)CCO1 | 4820 | 2330 | 73.4 | 8790 | –
32 | Nc1cc(C(F)F)c(-c2cc(N3C4CCC3COC4)nc(N3C4CCC3COC4)n2)cn1 | 287 | 164 | 12 | 2090 | –
33 | Nc1cc(C(F)(F)F)c(-c2nc(N3CCOCC3)cc(N3CCOCC3)n2)cn1 | 729 | 926 | 911 | 41 | –
34 | Nc1cc(C(F)(F)F)c(-c2nc(N3CCOCC3)nc(N3CCOCC3)n2)cn1 [BIMIRALISIB] | – | – | – | – | Activity [11]: Non-Toxic; inhibition in vivo at 50 mg/kg [12]: > 50%; Activity [13]: inactive; Activity [14]: Active; Activity [15]: Active; Activity [16]: Active; Activity [17]: Active
